The results in this text go back to patent US20190119357A1, “MESSENGER RIBONUCLEIC ACIDS FOR THE PRODUCTION OF INTRACELLULAR BINDING POLYPEPTIDES AND METHODS OF USE THEREOF” (ModernaTX, Inc., priority 2015, published 2019).

For one assay, the system named is MCL1. In words: MCL1 downregulation by Western blotting in Hep3B cells. Format: cell-based, human. The following applies: 24 hours, sorafenib 10 uM. How it is done:
A first series of experiments was conducted to determine whether specific targeting of MCL1 recapitulates sorafenib synergy with SQT-BH3 in cells in vitro.
For orientation: Immunoblotting shows a protein as a band on a membrane.

In a further assay the test system is Hep3B SC tumors. In words: Combination with sorafenib in SCID mice bearing Hep3B SC tumors. Format: in vivo. To be noted: Sorafenib 10 mg/kg orally daily alone, three weeks, end of study. How it is done: SCID mice bearing Hep3B SC tumors (tumor size range 140-227 mm^3; average=183 mm^3) were dosed over a three week period with a combination of 0.5% methyl cellulose daily and SQT IV at 1.5 mg/kg alone weekly (Days 1, 8 and 15; Group 1), Sorafenib (in 0.5% methyl cellulose) at 10 mg/kg orally daily alone (Group 2), mmRNA encoding SQT-PUMA-BH3 (comprising a miR122 binding site) weekly at 1.5 mg/kg IV alone (Group 3) or a combination of mmRNA encoding SQT-PUMA-BH3 (with miR122 binding site) at 1.5 mg/kg IV weekly with sorafenib at 10 mg/kg orally daily (Group 4; 10 animals per group).

For another assay, the system named is systemic TF1a xenografts. Description: Systemic TF1a xenografts in SCID mice (AML model). It counts as in vivo. To be noted: TF1a-SCID; mRNA LNPs 3 mg/kg one time per week, cytarabine 2 mg/kg three times per week, IV, four weeks. As for the experimental part:
LNPs comprising the cationic lipid MC3 were tested using the optimal percentage of PEG-lipid and optimal PEG length (1.5% DSPE, C18, as described in Example 8), for in vivo targeted delivery of SQT-PUMA-BH3 in two different in vivo models of acute myeloid leukemia (AML). One model used systemic TF1a xenografts in SCID mice. The other model used systemic HEL xenografts in SCID mice. Each of these models uses a human erythroleukemia cell line. The HEL erythroleukia cell line is described in, for example, Martin, P. and Papayannopoulou, T. (1982) Science 216:1233-1235. The TF1 erythroleukmia cell line (from which TF1a is derived) is described in, for example, Kitamura, T. et al. (1989) J. Cell. Physiol. 140:323-334. Unless otherwise noted, mRNAs were fully modified with N1-methlypseudouridine to avoid stimulating an innate immune response to said mRNAs when administered in vivo.
In a first set of experiments, TF1a cells stably expressing luciferase (TF1α-luc cells) were implanted systemically in SCID mice. Tumor growth was measured by whole body bioluminescent imaging (BLI) in anaesthetized animals following SC injection of 150 mg/kg D-Luciferin, in an imaging chamber (Spectrum CT). Animals showing an increasing tumor burden at day 12 post-cell implantation were recruited for treatment. […]

Molecules are shown by their SMILES.

As for `CNC(=O)c1cc(Oc2ccc(NC(=O)Nc3ccc(Cl)c(C(F)(F)F)c3)cc2)ccn1` [sorafenib, reference compound], the “MCL1 level (Western blotting)” value in the assay with MCL1 was “downregulates MCL1”. For the same compound, in the assay with Hep3B SC tumors, the “tumor growth inhibition (TGI)” value is on record as 38%.

As for `Nc1ccn([C@@H]2O[C@H](CO)[C@@H](O)[C@@H]2O)c(=O)n1` [cytarabine, reference compound], in the assay with systemic TF1a xenografts, the “systemic tumor growth (BLI)” value is recorded as “did inhibit systemic tumor growth”.
